Experimental data: paper PMC6625456 (Molecular Medicine Reports, 2019)

Tests used:
[1] = plasma pharmacokinetics after oral and intravenous administration; assay type: in vivo, Sprague-Dawley (SD) rats; conditions: both, Sprague-Dawley, rat
[2] = system: Aβ1-42-induced amnesia in mice; conditions: cited from earlier work
[3] = concentration in entorhinal cortex and hippocampus after oral administration; assay type: in vivo, Sprague-Dawley (SD) rats
[4] = cumulative excretion in bile, urine and feces; assay type: in vivo, Sprague-Dawley (SD) rats; conditions: oral 100 mg/kg
[5] = system: AChE; conditions: read-out: IC50, inhibition of AChE; in vitro; cited from earlier work
[6] = molecular target: CYP2D6 (Homo sapiens, UniProt P10635); experiment: metabolism in recombinant human CYP450 enzymes; assay type: in vitro ADME; conditions: DL0410 10 µM; recombinant CYP1A2, CYP2C9, CYP2D6, CYP3A4; 37°C, 2 h
[7] = system: BChE; conditions: read-out: IC50, inhibition of BChE; in vitro; cited from earlier work
[8] = system: APP/PS1 transgenic mice; conditions: cited from earlier work

CYP2D6, sequence (P10635 whole entry): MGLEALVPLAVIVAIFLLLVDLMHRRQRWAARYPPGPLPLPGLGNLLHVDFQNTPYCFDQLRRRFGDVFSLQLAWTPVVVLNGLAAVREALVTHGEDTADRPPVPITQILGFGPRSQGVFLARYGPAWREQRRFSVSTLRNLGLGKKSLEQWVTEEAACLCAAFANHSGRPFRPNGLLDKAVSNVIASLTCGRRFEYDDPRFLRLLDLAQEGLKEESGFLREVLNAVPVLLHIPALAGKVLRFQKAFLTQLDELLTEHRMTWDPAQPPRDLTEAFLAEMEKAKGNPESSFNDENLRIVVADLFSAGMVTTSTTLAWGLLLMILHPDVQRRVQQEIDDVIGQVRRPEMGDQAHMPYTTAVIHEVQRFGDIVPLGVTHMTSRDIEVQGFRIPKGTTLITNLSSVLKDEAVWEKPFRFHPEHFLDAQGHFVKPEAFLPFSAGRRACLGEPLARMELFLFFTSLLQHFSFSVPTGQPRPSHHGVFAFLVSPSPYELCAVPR

Cl.Cl.O=C(CCN1CCCCC1)c1ccc(-c2ccc(C(=O)CCN3CCCCC3)cc2)cc1 [DL0410, 1,1′-([1,1′-biphenyl]-4,4′-diyl)bis(3-(piperidin-1-yl)propan-1-one) dihydrochloride]
Tmax [1]: ~0.75 h
half-life [1]: 6.05 to 8.23 h
Cmax ([1]; 25 mg/kg): 21.5 ± 3.46 ng/mL
AUC(0-t) ([1]; 50 mg/kg): 239 ± 63 ng·h/mL
Cmax ([1]; 50 mg/kg): 56.1 ± 4.01 ng/mL
Cmax ([1]; 100 mg/kg): 196 ± 46.8 ng/mL
improvement of Aβ1-42-induced amnesia [2]: improve memory deficits
Tmax ([3]; both, Sprague-Dawley, rat, entorhinal cortex and hippocampus, po, 100 mg/kg): ~6 h
Cmax ([3]; both, Sprague-Dawley, rat, entorhinal cortex, po, 100 mg/kg): 46.2 ± 13.2 ng/mL
Cmax ([3]; both, Sprague-Dawley, rat, hippocampus, po, 100 mg/kg): 50.3 ± 6.92 ng/mL
crossing of the blood-brain barrier ([3]; rats, oral 100 mg/kg, detectable level in EC and HIP): able to cross the blood-brain barrier
accumulated excretion in bile ([4]; rat bile, for 36 h): 0.010 % of the dose
cumulative fecal excretion ([4]; rat feces): 34.71%
cumulative urinary excretion ([4]; rat urine, in 72 h): 0.086 % of the dose
IC50 [5]: 286 ± 4 nM
CYP450 isoform involved in the reduction reaction [6]: CYP2D6 was identified to be involved in the reduction of the carbonyl group
IC50 [7]: 3960 ± 99 nM
improvement of memory deficits [8]: improve memory deficits in APP/PS1 transgenic mice
